Patent US11400089B2, “Multikinase inhibitors and uses in reproductive and digestive tract fibrosis” (AIVIVA BIOPHARMA, INC., priority 2017, dated 2022)

Key:
TGF beta mRNA expression = TGF beta mRNA expression in rabbit dermal wound model (Example 5); type: in vivo, New Zealand White rabbits; conditions: 1% intradermal days 15 and 29; Day 42; FIG. 10
Protocol: (§1) Test compounds were examined in full-thickness dermal wounds in rabbits. Seven male New Zealand White rabbits, ranging in body weight from 3.03 to 3.40 kg were used in this study. Four wounds were placed on the ventral surface of both ears using an 8 mm skin punch biopsy. Axitinib (1.0%), nintedanib (1.0%), lenvatinib (1.0%), sorafenib (1.0%) and sunitinib (1.0%) were administered by intradermal or intralesional injection on days 15 and 29 following surgery. Animals were euthanized on Day 42 and trauma sites were harvested and divided in half. One half was preserved in formalin for histological examination and the other half frozen for TGF beta analysis.
TGF beta mRNA expression in treated trauma samples was compared to expression in untreated samples. In general, TGF beta expression in treated samples was lower relative to untreated trauma samples.

[1] = tested on: full-thickness dermal wounds; experiment: full-thickness dermal wounds in rabbit ear, histopathology (Example 5); type: in vivo, New Zealand White rabbits; set-up: average total score of test wounds lower than untreated/control wounds by / Neovascularization (histopathology score, treated mean) / Fibrosis/Collagen (histopathology score, treated mean) / Reepithelialization (histopathology score, treated mean) / Total Score (histopathology, treated mean): scale not given here; conditions: for Fibrosis/Collagen (histopathology score, treated mean) / Neovascularization (histopathology score, treated mean) / Reepithelialization (histopathology score, treated mean) / Total Score (histopathology, treated mean): 1% intradermal dosing days 15 and 29, Day 42; for average total score of test wounds lower than untreated/control wounds by: difference treated vs control
Protocol: as §1, with “analysis. Tissue H&E staining was evaluated semi-quantitatively for inflammation and neovascularization. Tissue fibrosis and collagen organization were evaluated by Mason's trichrome staining. Scores for four intradermal sites receiving test articles were averaged for each rabbit. Most scar tissues were composed of neovascularization, fibroblast hyperplasia, collagen disorganization and re-epithelialization.” for “analysis.”

[2] = tested on: testosterone and phenylephrine induced benign prostate hyperplasia; experiment: testosterone and phenylephrine induced benign prostate hyperplasia in rats (Example 3); type: in vivo, Male Wistar rats; conditions: for inhibition of cellular proliferation in testosterone/phenylephrine induced benign prostate hyperplasia model: 1% intra-prostate days 1 and 18, rat; for epithelial (glandular) hyperplasia score, dorsolateral prostate, representative image / epithelial (glandular) hyperplasia score, ventral prostate, representative image: TE+PE induced rats, intra-prostate 0.4 ml days 1 and 18, day 32, induced vehicle score=4; for epithelial (glandular) hyperplasia score, dorsolateral prostate, representative image: grade 0 (not present) to 5 (severe), FIG. 4; for epithelial (glandular) hyperplasia score, ventral prostate, representative image: grade 0 to 5, FIG. 5
Protocol: This study was conducted to determine the effects of multikinase inhibitors and vehicle on testosterone and phenylephrine induced benign prostate hyperplasia in rats. Male Wistar rats were induced with testosterone (2 mg/kg) plus phenylephrine (5 mg/kg) administered daily by subcutaneous injection on days 5 through 32. Vehicle or test compounds (all 1% w/v), nintedanib, sunitinib or lenvatinib and doxazosin mesylate, were administered by intra-prostate injection (0.4 ml) in dorsolateral and ventral lobes on days 1 and 18. Animals were euthanized on day 32.
At necropsy, the ventral and dorsolateral lobes of the prostate were separated and then cut into halves. The left halves were fixed in 10% neutral buffered formalin, sectioned, and stained with Hematoxylin and Eosin (H&E). Histological changes in these sections were scored. Epithelial hyperplasia was recognized as an increase in epithelial cells within normal-appearing gland profiles, primarily reflected by stratification of epithelial cells and increased presence of epithelial tufting and papillary projections. A severity grade of 0 (not present) through 5 (severe) was assigned to each sample.

[3] = tested on: suture induced ocular fibrosis; experiment: suture induced ocular fibrosis model in rabbits (Example 4); type: in vivo; conditions: for areas of neovascularization on the corneal surface: 0.3% topical 35 μL/eye three times daily for 10 days, FIG. 8; for fibroplasia and/or collagen density (histological staining) / alpha SMA staining (immunohistochemical analysis): 0.3% topical three times daily for 10 days, FIG. 9; for fibroplasia and/or collagen density (histological staining): Day 11; for alpha SMA staining (immunohistochemical analysis): relative to vehicle
Protocol: A study was conducted to determine the potential beneficial effects of topical administration of test compounds and vehicle in a suture induced ocular fibrosis model in rabbits. Sutures were placed intrastromally, under a microscope, in the cornea of rabbits. In each eye, one 9.0 silk suture was placed, in a vertical position, temporal to the center of the cornea and a second suture was placed nasal to the corneal center. Each suture had two stromal incursions approximately 2 mm from the limbus. Test compounds having a certain spectrum of multikinase inhibition activities or vehicle were topically instilled (35 μL/eye) in the eyes three times daily for 10 days following the day of surgery. The treatment groups include vehicle, axitinib (0.3%), nintedanib (0.3%), pirfenidone (1%), riociguat (0.3%), sorafenib (0.3%) and lenvatinib (0.3%). Six left eyes were used per treatment group.
During the in-life phase, gross ocular observations of very slight to moderate conjunctival congestion and swelling were similar among groups, including the vehicle control. The animals were sacrificed on Day 11 and eyes enucleated and dissected for histopathological evaluation.

[4] = tested on: LL37-induced inflammation; experiment: intradermal LL37 injection-induced inflammation model in mice, histopathology (Example 7); type: in vivo; conditions: single intradermal injection 1.6 mg, FIG. 13
Protocol: (§2) In our study, mice were injected subcutaneously with 40 μL of LL-37 (3.3 mg/mL) to induce inflammatory reactions. Immediately following the LL-37 injection, axitinib, nintedanib, and lenvatinib were individually administered as a single intradermal injection (1.6 mg). LL-37 injection was repeated every 12 hours for a total of 4 injections. Endotoxin-free water and dexamethasone (3 mg/kg by intraperitoneal injection, twice), respectively, were used as negative and positive control groups.
At 48 hours after the initial LL-37 injection, the dorsal skin was photographed, and the severity of skin lesions were scored for redness and measured for areas of involvement.
The tissue samples were analyzed for inflammation characteristics. Histopathology endpoints included inflammation, and CD4+ and CD8+ T-lymphocyte immunostaining. For inflammation scores, tissues were examined histologically and scored for inflammatory cell infiltrate.

[5] = tested on: TGF beta 1 protein levels; experiment: TGF beta 1 protein level (ELISA) in pig linear incision wound model (Example 6); type: in vivo, Gottingen minipigs; conditions: 16 mg per wound site intradermal; Days 4, 7 and 9; FIG. 11
Protocol: Full-thickness linear incision wounds were created in Gottingen minipigs on Day 1. 10 wounds approximately 3 cm in length and spaced at least 5 cm apart were created on the dorsal surface of the animals, perpendicular to the spine. Test agents included nintedanib (2%), lenvatinib (2%), sorafenib (1%), axitinib (2%) and vehicle control. Test agents were administered by intradermal injection immediately after wound creation. The dose of nintedanib, lenvatinib, sorafenib, or axitinib was 16 mg per wound site. Three minipigs were dosed in a similar manner. One minipig was sacrificed on Day 4, one on Day 7, and one on Day 9.
At the time of sacrifice, two dermal punch biopsies (4 mm) from each side of the wound sites were collected. Two biopsies were flash frozen in liquid nitrogen and stored at −80° C. prior to processing by protein extraction and ELISA (enzyme-linked immunosorbent assay) analysis. TGF beta protein levels were measured on Days 4, 7 and 9.

TGFb-1 mRNA expression = experiment: TGFb1 mRNA expression in LL37-induced mice (Example 7); type: in vivo; conditions: single intradermal injection 1.6 mg, FIG. 12
Protocol: as §2
The TGFb1 mRNA expression in mice induced with LL37 and treated with lenvatinib was 79% of that challenged with LL37 alone (i.e., without treatment).

[6] = 1% intradermal, rabbit ear wound

SMILES	mean folds of TGF beta mRNA expression vs untreated trauma samples (TGF beta mRNA expression)	Fibrosis/Collagen (histopathology score, treated mean) ([1]; rabbit ear wound)	Neovascularization (histopathology score, treated mean) ([1]; rabbit ear wound)	Reepithelialization (histopathology score, treated mean) ([1]; rabbit ear wound)	Total Score (histopathology, treated mean) ([1]; rabbit ear wound)	average total score of test wounds lower than untreated/control wounds by ([1]; 1% intradermal)	angiogenesis and fibrosis at treated trauma sites (histopathology summary) [1, 6]	fibrosis compared with control wound sites [1, 6]	neovascularization compared with untreated wounds [1, 6]	scar formation overall compared with control sites [1, 6]	inhibition of cellular proliferation in testosterone/phenylephrine induced benign prostate hyperplasia model [2]	epithelial (glandular) hyperplasia score, dorsolateral prostate, representative image [2]	epithelial (glandular) hyperplasia score, ventral prostate, representative image [2]	areas of neovascularization on the corneal surface [3]	fibroplasia and/or collagen density (histological staining) [3]	alpha SMA staining (immunohistochemical analysis) [3]	inflammation scores (inflammatory cell infiltrate) [4]	TGF beta 1 protein levels in wound [5]	TGFb1 mRNA expression relative to LL37 alone (without treatment) (TGFb-1 mRNA expression)	TGFb-1 mRNA expression among all treatment groups (TGFb-1 mRNA expression)
COC(=O)c1ccc2c(c1)NC(=O)/C2=C(\Nc1ccc(N(C)C(=O)CN2CCN(C)CC2)cc1)c1ccccc1 [nintedanib]	lower than the expression level in untreated trauma samples	3	1	0.5	4.5	1.5	decreased angiogenesis and fibrosis	about the same fibrosis as untreated wounds	much less neovascularization	less scar formation compared with the control sites	effective inhibitors of cellular proliferation	3	3	efficacious in reducing the areas of neovascularization	significantly reduced fibroplasia and/or collagen density	significantly reduced alpha SMA staining	prominent reductions in the scores of inflammation	time-dependent inhibition of TGF beta 1 protein levels	–	–
COc1cc2nccc(Oc3ccc(NC(=O)NC4CC4)c(Cl)c3)c2cc1C(N)=O [lenvatinib]	lower than the expression level in untreated trauma samples	2.5	2	0	4.5	0.5	decreased angiogenesis and fibrosis	decreased fibrosis compared to control wound sites	–	–	effective inhibitors of cellular proliferation	2	3	efficacious in reducing the areas of neovascularization	significantly reduced fibroplasia and/or collagen density	significantly reduced alpha SMA staining	prominent reductions in the scores of inflammation	time-dependent inhibition of TGF beta 1 protein levels	79%	lowest TGFb-1 mRNA expression
